# Patent US20180303853A1, “COMPOSITIONS AND METHODS FOR TREATING BACTERIAL INFECTIONS USING CEFTAROLINE” (priority 2017, published 2018)
# Read-outs that look alike come from different tables or passages of the source.
# What was measured:
# [1] = Example 4 CAP study, safety
# Protocol: (§6) Study-Drug: Ceftaroline fosamil was administered in two consecutive 300 mg intravenous (IV) infusions over 30 minutes, every 12 hours (q12h). The 600-mg dose of ceftaroline fosamil infused over 60 minutes was split into two infusions in order to maintain the blind. For subjects with moderate renal impairment (30 ml/min<CrCl≤50 ml/min), as estimated by the Cockroft-Gault formula, unblinded pharmacy staff or unblinded study staff could adjust the dose of ceftaroline fosamil to two consecutive 200 mg infusions and readjust dose to two 300 mg infusions when renal function improved (CrCl>50 mL/min). The duration of treatment was between 5 to 7 days.
# (§7) All subjects who received any amount of study drug were included in the safety analysis. Safety measures included monitoring for adverse events (AE) up to TOC and serious adverse events (SAE) through LFU; recording vital signs, physical examination, electrocardiogram (ECG), and clinical laboratory findings (clinical chemistry, hematology, and urinalysis), at prespecified times throughout the study.
# [2] = system: Community-Acquired Bacterial Pneumonia (CABP); experiment: Two Phase 3 studies in CABP, clinical cure at TOC (single and integrated/combined); format: in vivo, human; conditions: for Combined clinical cure rate: combined data of the two CAP studies, TOC
# Protocol: (§1) In both treatment groups of CABP Study 1, two doses of oral clarithromycin (500 mg q12 h), were administered as adjunctive therapy starting on Study Day 1. No adjunctive macrolide therapy was used in CABP Study 2. Patients with new or progressive pulmonary infiltrate(s) on chest radiography and clinical signs and symptoms consistent with CABP with the need for hospitalization and IV therapy were enrolled in the studies. Treatment duration was 5 to 7 days. A switch to oral therapy was not allowed. The Modified Intent-to-Treat Efficacy (MITTE) population, included all patients who received any amount of study drug according to their randomized, treatment group and were in PORT (Pneumonia Outcomes Research Team) Risk Class III or IV.
# (§2) The primary efficacy endpoint was the clinical response at the Test of Cure (TOC) visit in the co-primary Ce and MITTE populations (Table 4).
# MDRSP [3] = experiment: Example 4 CAP study, outcome by baseline pathogen; format: in vivo, S. pneumoniae
# Source text: (§3) Per-pathogen clinical cure rate and favorable microbiological outcome rate at TOC in the mMITTE and ME Populations;
# K. pneumoniae = experiment: Example 4 CAP study, outcome by baseline pathogen; format: in vivo
# Source text: as §3
# S. pneumoniae [4] = experiment: Example 4 CAP study, outcome by baseline pathogen; format: in vivo
# Source text: as §3
# S. aureus [5] = experiment: Example 4 CAP study, outcome by baseline pathogen; format: in vivo
# Source text: as §3
# H. influenzae [6] = experiment: Example 4 CAP study, outcome by baseline pathogen; format: in vivo
# Source text: as §3
# H. parainfluenzae [7] = experiment: Example 4 CAP study, outcome by baseline pathogen; format: in vivo
# Source text: as §3
# [8] = system: MSSA (methicillin-susceptible); experiment: Integrated Phase 3 CABP studies, clinical cure by infecting pathogen; format: in vivo, Staphylococcus aureus; conditions: ME patients
# Protocol: as §1, §2
# [9] = system: community-acquired pneumonia (CAP); experiment: Example 5 Phase 3 study, ceftaroline vs ceftriaxone with adjunctive clarithromycin in CAP, efficacy; format: in vivo, human
# Source text: (§4) The secondary objective of the study was to evaluate the following: the clinical response at end-of-therapy (EOT); the microbiological favorable outcome rate at TOC; the overall (clinical and radiographic) success rate at TOC; the clinical and microbiological response by pathogen at TOC; clinical relapse at late follow-up (LFU); microbiological reinfection/recurrence at LFU; and safety.
# The primary efficacy outcome measures were the per-subject clinical cure rate at TOC in the CE and MITTE Populations. Subjects were considered clinically cured at TOC if they had total resolution of all signs and symptoms of the baseline infection, or improvement of the infection such that no further antimicrobial therapy was necessary.
# (§5) Non-inferiority was concluded if the lower limit of the 95% CI was higher than −10%.
# [10] = Example 5 CAP study, safety
# Protocol: (§8) Study drug: Ceftaroline fosamil was administered in two consecutive 300 mg intravenous (IV) infusions over 30 minutes, every 12 hours (q12h). The 600-mg dose of ceftaroline fosamil infused over 60 minutes was split into two infusions in order to maintain the blind. For subjects with moderate renal impairment (30 mL/min<CrCl≤50 mL/min), as estimated by the Cockroft-Gault formula, unblinded pharmacy staff or unblinded study staff could adjust the dose of ceftaroline fosamil to two consecutive 200 mg infusions and readjust dose to two 300 mg infusions when renal function improved (CrCl>50 mL/min). The duration of treatment was between 5 to 7 days.
# (§9) All subjects initially received two doses (500 mg every 12 hours) of oral adjunctive therapy with clarithromycin following randomization.
# (§10) All subjects who received any amount of study drug were included in the safety analysis. Safety measures included monitoring for adverse events (AE) up to TOC and serious adverse events (SAE) through LFU; recording vital signs, physical examination, electrocardiogram (ECG), and clinical laboratory findings (clinical chemistry, hematology, and urinalysis); at prespecified times throughout the study.
# Klebsiella pneumoniae = experiment: Integrated Phase 3 CABP studies, clinical cure by infecting pathogen; format: in vivo; conditions: ME patients
# Protocol: as §1, §2
# Streptococcus pneumoniae = experiment: as above; format: in vivo; conditions: ME patients
# Protocol: as §1, §2
# Haemophilus influenzae = experiment: as above; format: in vivo; conditions: ME patients
# Protocol: as §1, §2
# Escherichia coli = experiment: as above; format: in vivo; conditions: ME patients
# Protocol: as §1, §2
# Staphylococcus aureus = experiment: as above; format: in vivo; conditions: ME patients
# Protocol: as §1, §2
# [11] = human, in vivo
# Protocol: as §6, §7
# MDRSP [12] = experiment: Example 5 CAP study, outcome by baseline pathogen; format: in vivo, S. pneumoniae
# Source text: as §3
# S. pneumoniae [13] = experiment: Example 5 CAP study, outcome by baseline pathogen; format: in vivo
# Source text: as §3
# E. coli = experiment: Example 5 CAP study, outcome by baseline pathogen; format: in vivo
# Source text: as §3
# S. aureus [14] = experiment: Example 5 CAP study, outcome by baseline pathogen; format: in vivo
# Source text: as §3
# H. influenzae [15] = experiment: Example 5 CAP study, outcome by baseline pathogen; format: in vivo
# Source text: as §3
# H. parainfluenzae [16] = experiment: Example 5 CAP study, outcome by baseline pathogen; format: in vivo
# Source text: as §3
# [17] = human, in vivo; remark: listed apart in the source
# Protocol: as §8, §9, §10
# [18] = system: community-acquired pneumonia (CAP); experiment: Example 4 Phase 3 study, ceftaroline vs ceftriaxone in CAP, efficacy; format: in vivo, human
# Source text: as §4, with “objectives” for “objective”, “were” for “was”, “following:” for “following: the”
# The following criteria were used for evaluation: The primary efficacy outcome measures were the pet-subject clinical cure rate at test-of-cure (TOC) in the CE and MITTE Populations Subjects were considered clinically cured at TOC if they had total resolution of all signs and symptoms of the baseline infection, or improvement of the infection such that no further antimicrobial therapy was necessary.
# as §5
# [19] = system: MDRSP (multidrug-resistant); format: in vivo, Streptococcus pneumoniae; conditions: CABP, ME patients
# Protocol: as §1, §2
smiles,measurement,setting,value
"CO/N=C(\C(=O)N[C@@H]1C(=O)N2C(C(=O)O)=C(CSc3nc(=O)c(=O)[nH]n3C)CS[C@H]12)c1csc(N)n1 [Ceftriaxone, ceftriaxone, reference compound]",hemolytic anemia,[1],No evidence of hemolytic anemia
same,incidence of deaths,[1],2.0%
same,Clinical cure rate at TOC,"[2]; CABP Study 1, CE population",183/234 (78.2%)
same,Clinical cure rate at TOC,"[2]; CABP Study 1, MITTE population",233/300 (77.7%)
same,Clinical cure rate at TOC,"[2]; CABP Study 2, CE population",166/215 (77.2%)
same,Clinical cure rate at TOC,"[2]; CABP Study 2, MITTE population",206/273 (75.5%)
same,Clinical cure rate at TOC,"[2]; Integrated Studies, CE population, 5 to 7 days of therapy",349/449 (77.7%)
same,Clinical cure rate at TOC,"[2]; Integrated Studies, MITTE population",439/573 (76.6%)
same,Combined clinical cure rate,[2]; CE,349/449 (77.7) %
same,Combined clinical cure rate,[2]; ME,111/147 (75.5) %
same,Combined clinical cure rate,[2]; MITTE,439/573 (76.6) %
same,Combined clinical cure rate,[2]; mMITTE,126/168 (75.0) %
same,Favorable Microbiological Outcome at TOC by Baseline Pathogen,"MDRSP [3]; Example 4, ME",2/4 (50.0)
same,Clinical Cure Rate at the TOC Visit by Baseline Pathogen,"MDRSP [3]; Example 4, ME Population",1/4 (25.0)
same,Favorable Microbiological Outcome at TOC by Baseline Pathogen,"K. pneumoniae; Example 4, ME",7/8 (87.5)
same,Clinical Cure Rate at the TOC Visit by Baseline Pathogen,"K. pneumoniae; Example 4, ME Population",7/8 (87.5)
same,Favorable Microbiological Outcome at TOC by Baseline Pathogen,"S. pneumoniae [4]; Example 4, ME",25/32 (78.1)
same,Clinical Cure Rate at the TOC Visit by Baseline Pathogen,"S. pneumoniae [4]; Example 4, ME Population",23/32 (71.9)
same,Favorable Microbiological Outcome at TOC by Baseline Pathogen,"S. aureus [5]; Example 4, ME",11/15 (73.3)
same,Clinical Cure Rate at the TOC Visit by Baseline Pathogen,"S. aureus [5]; Example 4, ME Population",8/15 (53.3)
same,Favorable Microbiological Outcome at TOC by Baseline Pathogen,"H. influenzae [6]; Example 4, ME",11/12 (91.7)
same,Clinical Cure Rate at the TOC Visit by Baseline Pathogen,"H. influenzae [6]; Example 4, ME Population",11/12 (91.7)
same,Favorable Microbiological Outcome at TOC by Baseline Pathogen,"H. parainfluenzae [7]; Example 4, ME",7/7 (100.0)
same,Clinical Cure Rate at the TOC Visit by Baseline Pathogen,"H. parainfluenzae [7]; Example 4, ME Population",6/7 (85.7)
same,Clinical cure rate by infecting pathogen,[8],14/25 (56.0%)
same,Clinical Success at the TOC Visit,"[9]; Example 5, CE population",183 (78.2) %
same,Favorable Microbiological Outcome at the TOC Visit,"[9]; Example 5, ME population",56 (78.9) %
same,Clinical Success at the TOC Visit,"[9]; Example 5, MITTE population",233 (77.7) %
same,Favorable Microbiological Outcome at the TOC Visit,"[9]; Example 5, mMITTE population",63 (78.8) %
same,hemolytic anemia,[10],No evidence of hemolytic anemia
same,percentage of deaths,[10],2.6%
same,Clinical cure rate by infecting pathogen,Klebsiella pneumoniae,10/12 (83.3%)
same,Clinical cure rate by infecting pathogen,Streptococcus pneumoniae,41/59 (69.5%)
same,Clinical cure rate by infecting pathogen,Haemophilus influenzae,17/20 (85.0%)
same,Clinical cure rate by infecting pathogen,Escherichia coli,9/12 (75.0%)
same,Clinical cure rate by infecting pathogen,Staphylococcus aureus,15/27 (55.6%)
same,Adverse event: COPD,[11],5 (1.6) %
same,Adverse event: Diarrhea,[11],9 (2.9) %
same,Adverse event: Head ache,[11],5 (1.6) %
same,Adverse event: Hypertension,[11],8 (2.6) %
same,Adverse event: Pleural effusion,[11],7 (2.3) %
same,Adverse event: Pneumonia,[11],4 (1.3) %
same,study-drug-related TEAE: alanine aminotransferase increased,[11],1.0%
same,study-drug-related TEAE: blood creatinine phosphokinase increased,[11],0.7%
same,study-drug-related TEAE: heartache,[11],1.0%
same,subjects with any study-drug-related TEAEs,[11],13.7%
same,Favorable Microbiological Outcome at TOC by Baseline Pathogen,"MDRSP [12]; Example 5, ME",0
same,Clinical Cure Rate at the TOC Visit by Baseline Pathogen,"MDRSP [12]; Example 5, ME Population",0
same,Favorable Microbiological Outcome at TOC by Baseline Pathogen,"S. pneumoniae [13]; Example 5, ME",18/27 (66.7)
same,Clinical Cure Rate at the TOC Visit by Baseline Pathogen,"S. pneumoniae [13]; Example 5, ME Population",18/27 (66.7)
same,Favorable Microbiological Outcome at TOC by Baseline Pathogen,"E. coli; Example 5, ME",6/6 (100.0)
same,Clinical Cure Rate at the TOC Visit by Baseline Pathogen,"E. coli; Example 5, ME Population",5/6 (83.3)
same,Favorable Microbiological Outcome at TOC by Baseline Pathogen,"S. aureus [14]; Example 5, ME",8/12 (66.7)
same,Clinical Cure Rate at the TOC Visit by Baseline Pathogen,"S. aureus [14]; Example 5, ME Population",7/12 (58.3)
same,Favorable Microbiological Outcome at TOC by Baseline Pathogen,"H. influenzae [15]; Example 5, ME",6/8 (75.0)
same,Clinical Cure Rate at the TOC Visit by Baseline Pathogen,"H. influenzae [15]; Example 5, ME Population",6/8 (75.0)
same,Favorable Microbiological Outcome at TOC by Baseline Pathogen,"H. parainfluenzae [16]; Example 5, ME",9/10 (90.0)
same,Clinical Cure Rate at the TOC Visit by Baseline Pathogen,"H. parainfluenzae [16]; Example 5, ME Population",9/10 (90.0)
same,Adverse event: Constipation,[17],5 (1.6) %
same,Adverse event: Hypertension,[17],8 (2.6) %
same,TEAEs assessed as drug related by the Investigators,[17],12.7%
same,study-drug-related TEAE: headache,[17],0.0%
same,study-drug-related TEAE: hepatic enzyme increased,[17],1.0%
same,study-drug-related TEAE: sinus bradychardia,[17],1.0%
same,Clinical Success at the TOC Visit,"[18]; Example 4, CE population",166 (77.2) %
same,Favorable Microbiological Outcome at the TOC Visit,"[18]; Example 4, ME population",63 (82.9) %
same,Clinical Success at the TOC Visit,"[18]; Example 4, MITTE population",206 (75.5) %
same,Clinical cure rate by infecting pathogen,[19],1/4 (25.0%)
